In ChEMBL document CHEMBL1153515 (Bioorg Med Chem, 2009):
pEC50: −log10 of the molar value.

Tests used:
Assay type in all cases: functional
[1] = target: T1, 5-hydroxytryptamine receptor 3A (Mus musculus, UniProt P23979); test: Agonist activity at wild type mouse 5HT3A receptor expressed in Xenopus oocyte by two-electrode voltage patch clamp method
T1 sequence (P23979 whole entry): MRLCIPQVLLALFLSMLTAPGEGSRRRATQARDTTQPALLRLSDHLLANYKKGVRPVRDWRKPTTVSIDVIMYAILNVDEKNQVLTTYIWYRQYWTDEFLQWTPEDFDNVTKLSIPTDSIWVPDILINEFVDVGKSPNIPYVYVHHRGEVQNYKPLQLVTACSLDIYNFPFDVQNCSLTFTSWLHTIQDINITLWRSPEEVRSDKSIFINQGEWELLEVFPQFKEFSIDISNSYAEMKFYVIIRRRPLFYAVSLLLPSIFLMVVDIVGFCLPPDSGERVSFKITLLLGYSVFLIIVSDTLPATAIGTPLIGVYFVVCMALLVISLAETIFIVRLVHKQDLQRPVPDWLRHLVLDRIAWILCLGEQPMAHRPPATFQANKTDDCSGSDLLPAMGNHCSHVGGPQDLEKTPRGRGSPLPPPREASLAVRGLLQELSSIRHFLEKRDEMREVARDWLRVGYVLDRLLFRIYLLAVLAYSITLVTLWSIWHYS

[2] = target: 5-hydroxytryptamine receptor 3A (Mus musculus, UniProt P23979, T180A); test: Agonist activity at mouse 5HT3A T181A receptor mutant expressed in Xenopus oocyte by two-electrode voltage patch method
Chain of 5-hydroxytryptamine receptor 3A (Mus musculus, UniProt P23979, T180A) (P23979 24-489 T181A limits assumed): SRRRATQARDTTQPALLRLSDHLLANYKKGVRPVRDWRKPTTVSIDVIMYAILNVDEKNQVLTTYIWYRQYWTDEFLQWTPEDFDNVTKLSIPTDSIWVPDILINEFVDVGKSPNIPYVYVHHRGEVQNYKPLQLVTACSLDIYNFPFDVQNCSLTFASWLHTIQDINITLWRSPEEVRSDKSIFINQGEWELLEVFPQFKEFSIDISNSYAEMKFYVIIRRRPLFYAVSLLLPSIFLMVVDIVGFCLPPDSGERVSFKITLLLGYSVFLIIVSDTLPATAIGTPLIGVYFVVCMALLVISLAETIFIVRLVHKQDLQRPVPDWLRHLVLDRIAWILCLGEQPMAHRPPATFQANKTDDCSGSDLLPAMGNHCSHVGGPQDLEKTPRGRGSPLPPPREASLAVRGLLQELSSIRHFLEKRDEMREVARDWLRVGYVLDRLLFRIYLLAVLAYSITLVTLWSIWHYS

[3] = target: 5-hydroxytryptamine receptor 3A (Mus musculus, UniProt P23979, Y152F); test: Agonist activity at mouse 5HT3A Y153F receptor mutant expressed in Xenopus oocyte by two-electrode voltage patch method
Chain of 5-hydroxytryptamine receptor 3A (Mus musculus, UniProt P23979, Y152F) (P23979 24-489 Y153F limits assumed): as the sequence (P23979 24-489 T181A limits assumed) above, with Y130F, A158T counted along it

[4] = target: 5-hydroxytryptamine receptor 3A (Mus musculus, UniProt P23979, S181A); test: Agonist activity at mouse 5HT3A S182A receptor mutant expressed in Xenopus oocyte by two-electrode voltage patch method
Chain of 5-hydroxytryptamine receptor 3A (Mus musculus, UniProt P23979, S181A) (P23979 24-489 S182A limits assumed): as the sequence (P23979 24-489 T181A limits assumed) above, with A158T, S159A counted along it

[5] = target: 5-hydroxytryptamine receptor 3A (Mus musculus, UniProt P23979, Q187A); test: Agonist activity at mouse 5HT3A Q188A receptor mutant expressed in Xenopus oocyte by two-electrode voltage patch method
Chain of 5-hydroxytryptamine receptor 3A (Mus musculus, UniProt P23979, Q187A) (P23979 24-489 Q188A limits assumed): as the sequence (P23979 24-489 T181A limits assumed) above, with A158T, Q165A counted along it

[6] = target: 5-hydroxytryptamine receptor 3A (Mus musculus, UniProt P23979, H184F); test: Agonist activity at mouse 5HT3A H185F receptor mutant expressed in Xenopus oocyte by two-electrode voltage patch method
Chain of 5-hydroxytryptamine receptor 3A (Mus musculus, UniProt P23979, H184F) (P23979 24-489 H185F limits assumed): as the sequence (P23979 24-489 T181A limits assumed) above, with A158T, H162F counted along it

[7] = target: 5-hydroxytryptamine receptor 3A (Mus musculus, UniProt P23979, Y152A); test: Agonist activity at mouse 5HT3A Y153A receptor mutant expressed in Xenopus oocyte by two-electrode voltage patch method
Chain of 5-hydroxytryptamine receptor 3A (Mus musculus, UniProt P23979, Y152A) (P23979 24-489 Y153A limits assumed): as the sequence (P23979 24-489 T181A limits assumed) above, with Y130A, A158T counted along it

[8] = target: 5-hydroxytryptamine receptor 3A (Mus musculus, UniProt P23979, H184Y); test: Agonist activity at mouse 5HT3A H185Y receptor mutant expressed in Xenopus oocyte by two-electrode voltage patch method
Chain of 5-hydroxytryptamine receptor 3A (Mus musculus, UniProt P23979, H184Y) (P23979 24-489 H185Y limits assumed): as the sequence (P23979 24-489 T181A limits assumed) above, with A158T, H162Y counted along it

[9] = target: 5-hydroxytryptamine receptor 3A (Mus musculus, UniProt P23979, Y142F); test: Agonist activity at mouse 5HT3A Y143F receptor mutant expressed in Xenopus oocyte by two-electrode voltage patch method
Chain of 5-hydroxytryptamine receptor 3A (Mus musculus, UniProt P23979, Y142F) (P23979 24-489 Y143F limits assumed): as the sequence (P23979 24-489 T181A limits assumed) above, with Y120F, A158T counted along it

[10] = target: 5-hydroxytryptamine receptor 3A (Mus musculus, UniProt P23979, I186A); test: Agonist activity at mouse 5HT3A I187A receptor mutant expressed in Xenopus oocyte by two-electrode voltage patch method
Chain of 5-hydroxytryptamine receptor 3A (Mus musculus, UniProt P23979, I186A) (P23979 24-489 I209A limits assumed): as the sequence (P23979 24-489 T181A limits assumed) above, with A158T, I186A counted along it

[11] = target: 5-hydroxytryptamine receptor 3A (Mus musculus, UniProt P23979, I189V); test: Agonist activity at mouse 5HT3A I190V receptor mutant expressed in Xenopus oocyte by two-electrode voltage patch method
Chain of 5-hydroxytryptamine receptor 3A (Mus musculus, UniProt P23979, I189V) (P23979 24-489 I190V limits assumed): as the sequence (P23979 24-489 T181A limits assumed) above, with A158T, I167V counted along it

[12] = target: 5-hydroxytryptamine receptor 3A (Mus musculus, UniProt P23979, L183V); test: Agonist activity at mouse 5HT3A L184V receptor mutant expressed in Xenopus oocyte by two-electrode voltage patch method
Chain of 5-hydroxytryptamine receptor 3A (Mus musculus, UniProt P23979, L183V) (P23979 24-489 L184V limits assumed): as the sequence (P23979 24-489 T181A limits assumed) above, with A158T, L161V counted along it

[13] = target: 5-hydroxytryptamine receptor 3A (Mus musculus, UniProt P23979, W182F); test: Agonist activity at mouse 5HT3A W183F receptor mutant expressed in Xenopus oocyte by two-electrode voltage patch method
Chain of 5-hydroxytryptamine receptor 3A (Mus musculus, UniProt P23979, W182F) (P23979 24-489 W183F limits assumed): as the sequence (P23979 24-489 T181A limits assumed) above, with A158T, W160F counted along it

[14] = target: 5-hydroxytryptamine receptor 3A (Mus musculus, UniProt P23979, T185A); test: Agonist activity at mouse 5HT3A T186A receptor mutant expressed in Xenopus oocyte by two-electrode voltage patch method
Chain of 5-hydroxytryptamine receptor 3A (Mus musculus, UniProt P23979, T185A) (P23979 24-489 T186A limits assumed): as the sequence (P23979 24-489 T181A limits assumed) above, with A158T, T163A counted along it

- pEC50 [1]: 6.10
- pEC50 [2]: 5.66
- pEC50 [3]: 5.66
- pEC50 [4]: 4.57
- pEC50 [5]: 5.64
- pEC50 [6]: 5.60
- pEC50 [7]: 5.12
- pEC50 [8]: 5.27
- pEC50 [9]: 5.28
- pEC50 [10]: 4.28
- pEC50 [11]: 5.70
- pEC50 [12]: 5.29
- pEC50 [13]: 4.80
- pEC50 [14]: 5.77
SMILES: N=C(N)NC(=N)Nc1cccc(Cl)c1
